“And” between values parts separate entries of the source, which are not always exact repeats. Equal values may be shown once. Read-outs that look alike come from different tables or passages of the source.
Columns and labels:
MCF-7 cells = assay: MCF-7 Cell Proliferation Assay (14C-thymidine, agonist and antagonist mode); assay type: cell-based; conditions: number in brackets = number of tests, NA = no detected activity at test concentration
Procedure: This assay was run according to the procedure described by Welshons, et al., (Breast Cancer Res. Treat., 1987, 10(2), 169-75), with minor modification.
Briefly, MCF-7 cells (from Dr. C. Jordan, Northwestern University) were maintained in RPMI 1640 phenol red free medium (Gibco) in 10% FBS (Hyclone), supplemented with bovine insulin and non-essential amino acid (Sigma). The cells were initially treated with 4-hydoxyltamoxifen (10^−8 M) and let stand at 37° C. for 24 hours. Following this incubation with tamoxifen, the cells were treated with compounds at various concentrations.
Compounds to be tested in the agonist mode were added to the culture media at varying concentrations. Compounds to be treated in the antagonist mode were prepared similarly, and 10 nM 17β-estradiol was also added to the culture media. The cells were incubated for 24 hours at 37° C. Following this incubation, 0.1 μCi of ^14C-thymidine (56 mCi/mmol, Amersham) was added to the culture media and the cells were incubated for an additional 24 hours at 37° C. The cells were then washed twice with Hank's buffered salt solution (HBSS) (Gibco) and counted with a scintillation counter. The increase in the ^14C-thymidine in the compound treated cells relative to the vehicle control cells were reported as percent increase in cell proliferation.

Ishikawa cells = assay: Alkaline Phosphatase Assay in Human Endometrial Ishikawa Cells (agonist and antagonist mode); assay type: cell-based; conditions: number in brackets = number of tests, NA = no detected activity at test concentration; for IC50: antagonist mode with 10 nM 17β-estradiol
Procedure: This assay was run according to the procedure described by Albert et a., Cancer Res, […], 50(11), 330-6-10, with minor modification.
Ishikawa cells (from ATCC) were maintained in DMEM/F12 (1:1) phenol red free medium (Gibco) supplemented with 10% calf serum (Hyclone). 24 hours prior to testing, the medium was changed to DMEM/F12 (1:1) phenol red free containing 2% calf serum.
Compounds to be tested in the agonist mode were added to the culture media at varying concentrations. Compounds to be treated in the antagonist mode were prepared similarly, and 10 nM 17β-estradiol was also added to the culture media. The cells were then incubated at 37° C. for 3 days. On the fourth day, the media was remove, 1 volume of 1× Dilution Buffer (Clontech) was added to the well followed by addition of 1 volume of Assay Buffer (Clontech). The cells were then incubated at room temperature for 5 minutes. […] The cells were incubated at room temperature for 10 minutes and then quantified on a luminometer. The increase of chemiluminescence over vehicle control was used to calculate the increase in alkaline phosphatase activity.

[1] = target: T1, human estrogen receptor α (Homo sapiens, UniProt P03372); assay: Estrogen Receptor α Flash Plate Assay (binding of radiolabeled estrogen)
T1 construct: purchased Panvera
T1 sequence (P03372 1-595): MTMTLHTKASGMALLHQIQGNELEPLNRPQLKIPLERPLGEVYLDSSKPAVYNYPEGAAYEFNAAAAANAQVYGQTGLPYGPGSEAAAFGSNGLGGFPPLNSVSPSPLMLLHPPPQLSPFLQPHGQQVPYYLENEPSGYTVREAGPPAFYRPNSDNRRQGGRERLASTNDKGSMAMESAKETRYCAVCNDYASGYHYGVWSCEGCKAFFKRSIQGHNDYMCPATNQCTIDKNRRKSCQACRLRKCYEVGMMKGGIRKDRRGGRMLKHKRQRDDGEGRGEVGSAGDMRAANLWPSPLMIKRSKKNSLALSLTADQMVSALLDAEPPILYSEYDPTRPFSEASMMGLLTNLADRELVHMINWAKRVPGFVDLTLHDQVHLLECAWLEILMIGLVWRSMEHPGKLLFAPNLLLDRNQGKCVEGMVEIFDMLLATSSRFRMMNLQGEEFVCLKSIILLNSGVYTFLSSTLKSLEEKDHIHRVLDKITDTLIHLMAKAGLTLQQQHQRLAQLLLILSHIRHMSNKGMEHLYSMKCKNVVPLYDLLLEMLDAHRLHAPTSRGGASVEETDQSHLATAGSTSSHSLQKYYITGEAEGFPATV
Procedure: This assay monitors binding of radiolabeled estrogen to the estrogen receptor. It is performed on a BioMek 2000 (Beckman). Plates are read in a scintillation counter (Packard TopCount), with decreased counts an indication of binding of a compound to the receptor.
The plate was sealed and incubated at 4° C. overnight.
On day two, each well was washed three times with 200 μL PBS, pH 7.2, at room temperature. To each well was then added 98 μL radiolabeled estrogen (0.5 nM, which equals 6 nCi for a 120 Ci/mmol batch, Amersham), diluted in ESB and 5 mM dithiothreitol (DTT). To individual wells were then added 2.5 μL test compound diluted in 30% (v/v) dimethyl sulfoxide/50 mM HEPES, pH 7.5. The wells were mixed three times by aspiration, the plate sealed and incubated at room temperature for one hour. The wells were then counted for 1 min in a TopCount scintillation counter (Packard).

[2] = antagonist mode with 10 nM 17β-estradiol
[3] = flash plate binding, 0.5 nM radiolabeled estrogen, number in brackets = No. of determinations, NA = no detected activity at test concentration, read-out: Estrogen Receptor α in μM (No.)
[4] = Homo sapiens, MCF7, antagonist mode with 10 nM 17β-estradiol

Structure (SMILES)	IC50 (MCF-7 cells; [2]) [µM]	IC50 (Ishikawa cells) [µM]	IC50 [1, 3] [µM]	IC50 (MCF-7 cells; [4]) [µM]	IC50 (Ishikawa cells; Homo sapiens) [µM]	IC50 [1]	EC50 (MCF-7 cells; agonist mode) [µM]	EC50 (Ishikawa cells; agonist mode) [µM]
CC(C)(C)C(=O)Oc1ccc2c(c1)OC(c1ccc(OCCN3CCCCC3)cc1)C1=C2COc2cc(O)ccc21 (single isomer, unassigned) [Compound 89, 2,2-Dimethyl-propionic acid 8-hydroxy-11S*-(+)-[4-(2-piperidin-1-yl-ethoxy)-phenyl]-5,11-dihydro-chromeno[4,3-c]chromen-2-yl ester]	0.845	0.01	> 1	–	–	–	–	–
COc1ccc2c(c1)OCC1=C2[C@H](c2ccc(OCCN3CCCCC3)cc2)Oc2cc(O)ccc21 (single isomer, unassigned) [Compound 181, 8-Methoxy-11S*(−)-[4-(2-piperidin-1-yl-ethoxy)-phenyl]-5,11-dihydro-chromeno[4,3-c]chromen-2-ol]	–	–	0.0011	1.33	0.034	–	–	–
CC(C)(C)C(=O)Oc1ccc2c(c1)OCC1=C2C(c2ccc(OCCN3CCCCC3)cc2)Oc2ccccc21 (single isomer, unassigned) [Compound 171, 2,2-Dimethyl-propionic acid 5S*-(+)-[4-(2-piperidin-1-yl-ethoxy)-phenyl]-5,11-dihydro-chromeno[4,3-c]chromen-2-yl ester]	5.1	–	0.14	–	0.0567	–	–	–
CC(C)(C)C(=O)Oc1ccc2c(c1)OCC1=C2C(c2ccc(OCCN3CCCCC3)cc2)Oc2cc(O)ccc21 (single isomer, unassigned) [Compound 90, 2,2-Dimethyl-propionic acid 8-hydroxy-5S*(+)-[4-(2-piperidin-1-yl-ethoxy)-phenyl]-5,11-dihydro-chromeno[4,3-c]chromen-2-yl ester]	1.67	0.057	0.0066	–	–	–	–	–
Oc1ccc2c(c1)OCCC1=C2C(c2ccc(OCCN3CCCCCC3)cc2)Oc2cc(F)ccc21 (centres unmarked) [Compound 174, 5-[4-(2-Azepan-1-yl-ethoxy)-phenyl]-8-fluoro-11,12-dihydro-5H-6,13-dioxa-benzo[3,4]cyclohepta[1,2-a]naphthalen-2-ol]	–	–	–	1.74	0.135	0.0015 µM and 0.0013 µM	–	–
CC(C)(C)C(=O)Oc1ccc2c(c1)OC(c1ccc(OCCN3CCCCC3)cc1)C1=C2COc2cc(OC(=O)C(C)(C)C)ccc21 (single isomer, unassigned) [Compound 24]	0.672	0.066	5.95	–	–	–	> 10	> 10
Oc1ccc2c(c1)OC(c1ccc(OCCN3CCCCC3)cc1)C1=C2CCOc2cc(O)ccc21 (single isomer, unassigned) [Compound 99, 5R*-(+)-[4-(2-Piperidin-1-yl-ethoxy)-phenyl]-11,12-dihydro-5H-6,13-dioxa-benzo[3,4]cyclohepta[1,2-a]naphthalene-2,8-diol]	0.182	0.13	0.0039	–	–	–	–	–
COc1ccc2c(c1)O[C@@H](c1ccc(OCCN3CCCCC3)cc1)C1=C2COc2cc(OC)ccc21 (single isomer, unassigned) [Compound 173, 5S*-(+)-1-{2-[4-(2,8-Dimethoxy-5,11-dihydro-chromeno[4,3-c]chromen-5-yl)-phenoxy]-ethyl}-piperidine]	–	–	0.17	> 10	> 10	–	–	–
c1ccc2c(c1)O[C@@H](c1ccc(OCCN3CCCCC3)cc1)C1=C2COc2ccccc21 (stereo in doubt) [Compound 169, 5S*-(+)-1-{2-[4-(5,11-Dihydro-chromeno[4,3-c]chromen-5-yl)-phenoxy]-ethyl}-piperidine]	≥ 10	0.83	0.072	–	–	–	–	–
Oc1ccc2c(c1)OC(c1ccc(OCCN3CCCCC3)cc1)C1=C2CCOc2cc(O)ccc21 (single isomer, unassigned) [Compound 100, 5S*-(−)-[4-(2-Piperidin-1-yl-ethoxy)-phenyl]-11,12-dihydro-5H-6,13-dioxa-benzo[3,4]cyclohepta[1,2-a]naphthalene-2,8-diol]	–	–	–	0.075	0.019	0.0026 µM	–	–
c1ccc2c(c1)OC(c1ccc(OCCN3CCCCC3)cc1)C1=C2COc2ccccc21 (single isomer, unassigned) [Compound 170, 5R*-(−)-1-{2-[4-(5,11-Dihydro-chromeno[4,3-c]chromen-5-yl)-phenoxy]-ethyl}-piperidine]	≥ 10	2.66	0.16	–	–	–	–	–
CC(C)(C)C(=O)Oc1ccc2c(c1)OCC1=C2C(c2ccc(OCCN3CCCCC3)cc2)Oc2ccccc21 (single isomer, unassigned) [Compound 172, 2,2-Dimethyl-propionic acid 5R*-(−)-[4-(2-piperidin-1-yl-ethoxy)-phenyl]-5,11-dihydro-chromeno[4,3-c]chromen-2-yl ester]	2.28	0.0684	0.26	–	–	–	–	–

More lines, now with the values ahead:

IC50 (MCF-7 cells; [2]) [µM]	IC50 (Ishikawa cells) [µM]	IC50 [1, 3] [µM]	IC50 (MCF-7 cells; [4]) [µM]	IC50 (Ishikawa cells; Homo sapiens) [µM]	IC50 [1]	EC50 (MCF-7 cells; agonist mode) [µM]	EC50 (Ishikawa cells; agonist mode) [µM]	Structure (SMILES)
≥ 10	3	0.014	–	–	–	–	–	OCCCOc1ccc(C2Oc3cc(O)ccc3C3=C2c2ccc(O)cc2OCC3)cc1 (racemic) [Compound 183]
2.61	0.324	0.0086	–	–	–	–	–	Oc1ccc2c(c1)OCCC1=C2C(c2ccc(OCCN3CCCCCC3)cc2)Oc2ccccc21 (single isomer, unassigned) [Compound 152]
1.36	1.02	0.015	–	–	–	–	–	CN(C)CCOc1ccc(C2Oc3cc(O)ccc3C3=C2c2ccccc2OCC3)cc1 (single isomer, unassigned) [Compound 149]
> 10	3.77	0.088	–	–	–	–	–	Oc1ccc2c(c1)OC(c1ccc(OCCN3CCCCCC3)cc1)C1=C2CCOc2ccccc21 (single isomer, unassigned) [Compound 155]
0.424	0.035	0.007	–	–	–	–	–	CC(C)N(CCOc1ccc(C2Oc3cc(O)ccc3C3=C2c2ccc(O)cc2OCC3)cc1)C(C)C (single isomer, unassigned) [Compound 167]
> 10	> 10	0.18	–	–	–	–	–	CN(C)CCOc1ccc(C2Oc3cc(O)ccc3C3=C2c2ccccc2OCC3)cc1 (single isomer, unassigned) [Compound 147]
0.22	0.287	0.0042	–	–	–	–	–	CC(C)N(CCOc1ccc(C2Oc3cc(O)ccc3C3=C2c2ccc(O)cc2OCC3)cc1)C(C)C (single isomer, unassigned) [Compound 168]
1.44	0.167	0.0042	–	–	–	–	–	Oc1ccc2c(c1)OC(c1ccc(OCCN3CCCCCC3)cc1)C1=C2CCOc2ccccc21 (single isomer, unassigned) [Compound 154]
1.27	0.509	0.0066	–	–	–	–	–	Oc1ccc2c(c1)OCCC1=C2C(c2ccc(OCCN3CCCCCC3)cc2)Oc2ccccc21 (single isomer, unassigned) [Compound 153]

Reference: US7105679B2, “Heteroatom containing tetracyclic derivatives as selective estrogen receptor modulators” (priority 2001, dated 2006)
